# Experimental data: US20230211052A1, “COMPOUNDED ACTIVE PHARMACEUTICAL AGENTS IN THERMOPLASTIC POLYMER COMPOSITIONS AND METHODS OF MANUFACTURE” (priority 2021, published 2023)
# Where a name gives a salt, the structure may show the parent alone.
# Assay: Thermal stability assessment, oven then HPLC for degradants
# Type: physicochemical
# Details: oven at 210° C. for 10 mins, compared with unheated sample
# Description: The antimicrobial agents were placed into an oven set at 210° C. for 10 mins (to mimic condition in which the antimicrobial agent would be exposed to heat during the compounding and extrusion processes). Another set of the same antimicrobial agents was not exposed to any heat. The unheated and heated samples were then examined through HPLC method for presence of degradants (extra peaks). Results of CHA and CHD are in FIGS. 8, 9, 10, and 11. […] Similar to CHD, ALX-D was also found stable at 210° C. for 10 mins and was found suitable for including in the device through compounding process.
row,SMILES,"thermal stability, presence of degradants (extra peaks) by HPLC"
1,"[H]/N=C(\N/C(=N/[H])NCCCCCCNC(=N)NC(=N)Nc1ccc(Cl)cc1)Nc1ccc(Cl)cc1 [CHD, Chlorhexidine Dihydrochloride]",absence of any extra peaks
2,"CCCCC(CC)CNC(=N)NC(=N)NCCCCCCNC(=N)NC(=N)NCC(CC)CCCC (stereo not drawn) [ALX-D, Alexidine Dihydrochloride]",stable
3,"CC(=O)O.CC(=O)O.NC(=N\CCCCCC/N=C(N)/N=C(\N)Nc1ccc(Cl)cc1)/N=C(\N)Nc1ccc(Cl)cc1 [CHA, Chlorhexidine Diacetate]",several extra peaks from degradants
